# Data as given in patent publication US20030087263A1, “Method of screening remedy for cancer with the use of interaction domain of p53 and mortalin” (priority 1999, published 2003).
# Where no end group is shown, it is not given here.
# Experiments:
# [1] = tested on: binding between p53 and mortalin (amino acid residues 1-435 or 105-435); assay: competitive inhibition assay of p53-mortalin binding; details: increasing amounts of competitor peptide
# Description: (C) The increase of the amounts of the peptide (comp. pep) corresponding to the mortalin amino acid residues 253-282 to be added reduced the […] the mortalin amino acid residues 1-435 (mot 1-435) and the peptide corresponding to mortalin amino acid residues 105-435 (mot 105-435). p53 was immunoprecipitated with the polyclonal anti-p53 antibody (CM-1) and detected by Western blotting with a monoclonal anti-p53 antibody (PAb 421)) (bands represented with an arrowhead). Co-immunoprecipitated mortalin was detected by Western blotting with anti-His tag antibody (indicated by arrows).
# Next, a competitive inhibition assay was performed to confirm the involvement of this peptide of amino acid residues 253-282 in the binding to p53.
# [2] = tested on: COS7 cells; assay: localization of GFP-fused p53 fragments expressed in COS7 cells; assay type: cell-based; details: COS7 cells transfected with GFP-fused protein
# Description: (B) A photograph showing the green fluorescence of GFP in COS7 cells transfected with (a) GFP alone, (b) GFP-p53 (amino acid residues 312-352), and (c) GFP-p53 (amino acid residues 312-319).
# Since the in vitro translated product of a 43 kDa truncated p53, lacking the C terminus, lacks the ability to bind to mortalin protein as described in Example 1, it was presumed that this deleted region contains the region that is related to the binding to mortalin.
# [3] = tested on: mortalin; assay: immunoprecipitation of GFP-p53 fragments using anti-mortalin antibody; assay type: binding; details: transfected cells, probed with anti-GFP antibody
# Description: (C) Mortalin was immunoprecipitated from cells transfected with GFP-tagged p53 fragments with polyclonal anti-mortalin antibodies, and was visualized with monoclonal antibodies. Immunocomplexes (Mot-IC) were also probed with monoclonal anti-GFP antibody to determine whether the p53 fusion proteins co-precipitate with mortalin (left panel). […] Bands corresponding to the IgG heavy and light chains are also detected on Mot-IC gel.
# [4] = tested on: p53-dependent transcriptional activation; assay: p53-dependent luciferase reporter analysis in p53-/- mouse embryonic fibroblasts; assay type: cell-based; details: p53-/- MEF, PG13-luc type reporter, temperature-sensitive p53 at 32.5° C.
# Description: After preparing cDNAs that encode mutant mortalin proteins missing each of the functions shown in FIG. 3A and mortalin proteins point mutated at two different amino acid residues between mot-1 and mot-2 according to the method described in Example 1, the cDNAs were used for p53-dependent reporter analysis. Specifically, cells obtained by stable transfection of plasmid […], wherein the firefly luciferase gene has been linked to p53 responsive promoter (having the promoter sequence “[…]” and expresses the gene downstream of that sequence as a result of binding with p53 protein), and temperature-sensitive mutant p53 protein expression vector pMSVp53Val135 into mouse embryonic fibroblasts deficient in functional p53 gene (P53−/−MEF) (see, Wadhwa, R. et al. (1998) J. Biol. Chem. 273, 29586-29591) were transfected with various mortalin mutant protein expression vectors and pRL-CMV, serving as an internal control for standardizing transcription efficiency. After incubation at 32.5° C., which is an allowable temperature for the mutant p53 protein, the luciferase activity was measured.
# [5] = tested on: p53-dependent transcriptional activation; assay: p53 responsive β-gal reporter assay by microinjection into Saos2 cells; assay type: cell-based, human; details: for β-Gal Staining: Percent of Blue cells / β-Gal Staining: Blue cells: Saos2, microinjected with pMSV p53 and p53 β-gal rep.
# Description: (C) The p53 activity detected for the p53 responsive β-galactosidase reporter construct was inhibited when a plasmid encoding mot-2 (b and i) , mut-11 (d and K), or mutant V16M (f and m) was simultaneously microinjected with the p53 expression plasmid. […] Microinjected cells were visualized by staining with FITC-labeled anti-rabbit IgG (a-g).
# Similar results were obtained according to an experiment wherein the above mutant mortalin proteins, temperature-sensitive mutant p53 protein, and p53 responsive β-gal reporter gene pRGCΔfos-lacZ were introduced into a human osteosarcoma cell line Saos2 by microinjection.
# [6] = biological target: T1, full-length mouse wild-type p53 (Mus musculus, UniProt P02340); assay: in vitro binding assay of mortalin protein and p53 protein (co-immunoprecipitation); details: His-tagged recombinant mortalin, in vitro translated 35S-labeled p53, co-precipitation
# T1 construct: mRNA encoding full-length mouse wild-type p53; made in house; host or cells: in vitro translation in rabbit reticulocyte lysate (Stratagene)
# T1 sequence (P02340 whole entry): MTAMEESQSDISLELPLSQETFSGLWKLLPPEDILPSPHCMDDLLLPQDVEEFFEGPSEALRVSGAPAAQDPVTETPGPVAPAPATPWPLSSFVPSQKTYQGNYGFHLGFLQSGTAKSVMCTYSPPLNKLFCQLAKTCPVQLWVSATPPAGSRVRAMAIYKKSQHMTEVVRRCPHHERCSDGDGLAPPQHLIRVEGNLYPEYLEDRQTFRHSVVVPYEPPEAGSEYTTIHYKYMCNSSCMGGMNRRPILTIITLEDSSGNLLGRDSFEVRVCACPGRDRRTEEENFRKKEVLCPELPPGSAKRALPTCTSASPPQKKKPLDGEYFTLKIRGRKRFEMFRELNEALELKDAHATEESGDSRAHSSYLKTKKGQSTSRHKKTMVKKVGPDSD
# Protocol: After preparing mRNA encoding full-length mouse wild-type p53 with a template of pSP65/p53 plasmid (Braithwaite, A. W. and Jenkins, J. R. (1989) J. Virol. 63, 1792-1799) using Transprobe T Kit (Pharmacia), [^35S]-labeled p53 protein was obtained by subjecting to in vitro translation reaction using rabbit reticulocyte lysate (Stratagene) for 1 hour in the presence of L-[^35S]methionine. After separating the translation products by SDS-PAGE, the translation reaction products were confirmed by autoradiography. The in vitro translated p53 protein was purified by immunoprecipitation with anti-p53 antibodies (PAb 421, PAb 1620 (Calbiochem), and PAb 122 (Boehringer-Mannheim)), and was used in the subsequent in vitro binding assays described below.
# After preparing cDNAs encoding the recombinant mortalin protein (full-length) and various deletion mutants (described later) by PCR and converting them to a form to encode a His-tagged protein by inserting the cDNAs into pQE30 vector (Qiagen) the cDNAs were introduced into E. coli for expression. The resulting bacterial extracts were purified with Ni-NTA agarose (Qiagen). […] Then, p53 protein was detected by autoradiography; mortalin and deletion mutants thereof were detected by Western blotting with anti-His antibody and ECL-chemiluminescence (Amersham).
substance,measurement,setting,value
253-282: peptide corresponding to the mortalin amino acid residues 253-282,inhibition of binding between p53 and mortalin,[1],inhibited binding between p53 and mortalin
"GFP-p53 (amino acid residues 312-352): green fluorescent protein fused with p53 amino acid residues 312-352 ({GFP}-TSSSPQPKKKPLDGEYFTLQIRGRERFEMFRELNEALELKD; UniProt P04637 312-352, looked up, fragment)",expressed proteins localized to the vicinity of the nucleus,[2],about 90%
same,binding to mortalin (co-precipitation),[3],confirmed to bind to mortalin
"GFP-p53 (amino acid residues 372-390): green fluorescent protein fused with p53 amino acid residues 372-390 ({GFP}-KKGQSTSRHKKLMFKTEGP; UniProt P04637 372-390, looked up, fragment)",binding to mortalin (co-precipitation),[3],no precipitation
mot-1: mortalin protein cloned from normal mouse cells; differs from mot-2 by two amino acids (residues 618 and 624),inhibition of p53-dependent transcriptional activation (luciferase activity),[4],did not have any effect
same,β-Gal Staining: Percent of Blue cells,[5],88%
same,β-Gal Staining: Blue cells,[5]; with Anti-mot IgG,83
same,β-Gal Staining: Percent of Blue cells,[5]; with Anti-mot IgG,90%
same,β-Gal Staining: Blue cells,[5]; number of blue cells among transfected cells,52
same,effect on p53-dependent transcriptional activation (β-gal reporter),"[5]; Saos2, microinjection",did not have a significant effect
same,binding with full-length p53 protein,[6],specifically bound
